Measurements: patent US20230410294A1, “METHOD FOR GRADING THE NUCLEAR MORPHOLOGY OF A TUMOR” (Nanyang Technological University, priority 2020, published 2023)
Entries after “also recorded” stand apart in the source; their conditions may differ.

Key:
Assay type in all cases: cell-based
SK-N-SH cells [1] = assay: Nanopillar-guided subnuclear anisotropicity after anti-cancer drug treatment; conditions: SK-N-SH on nanopillar arrays, 24 h, DOX 1 μM, Etop 10 μM; for fraction of cells with dominant isotropic ring features and low deformation coherency: DMSO control 0.262±0.160, FIG. 19e; for pillar coherency: DMSO control 0.3853±0.1448, FIG. 19d
Description: (§1) Nanopillar arrays were cleaned and sterilized by air plasma and UV exposure before cell culture. The nanochip was then coated with fibronectin ([…], Sigma-Aldrich) for 30 minutes under 37° C. The SK-N-SH cells were seeded on the nanostructures after coating and grown in Eagle's Minimum Essential Medium (MEM) supplemented with 2 mM L-glutamine (Gibco), 1% MEM Non-Essential Amino Acids (NEAA) (Gibco), 10% fetal bovine serum (FBS) (Life Technologies) and 100 U ml^−1 penicillin and […] streptomycin (Life Technologies) in a standard incubator at 37° C. with 5% CO2. Drug treatment was done after overnight incubation, the SK-N-SH cells on nanostructures are treated with Etoposide (ETOP) (Sigma), Doxorubicin (DOX) (Sigma) or Dimethyl sulfoxide (DMSO) (Sigma). After 24-hour incubation, the treated cells and untreated cells were fixed with 4% Paraformaldehyde (PFA) Solution in PBS (Boster biological technology AR1068) for 15 minutes for subsequent immunostaining.
The nuclear morphology in SK-N-SH cells were visualized by immunostaining lamin A and lamin B1. The lamin A and vimentin level in cells were characterized by immunostaining lamin A and vimentin. Cells were cultured on nanopillars and incubated overnight before fixation with pre-warmed 4% Paraformaldehyde (PFA) in PBS (Boster biological technology AR1068) for 15 minutes at room temperature. After washing with PBS for three times, the cells were permeabilized in 0.5% Triton X-100 (Sigma) in PBS for 15 minutes, followed by blocking with 5% bovine serum albumin (BSA) (Sigma) in PBS for 1 hour. Subsequently, samples were incubated with primary antibodies (anti-lamin A, Abcam, ab26300; anti-lamin B1, Abcam, ab16048; anti-vimentin, Sigma, V5255.) at 1:400 dilution at room temperature for 1 hour or 4° C. overnight. […]
(§2) Fluorescence imaging and live cell imaging were done by confocal microscopy (Zeiss LSM 800 with Airyscan or a spinning disc confocal microscope (SDC) that is built around a Nikon Ti2 inverted microscope equipped with a Yokogawa CSU-W1 confocal spinning head). […] The live cell imaging and subsequent fluorescence imaging were done by SDC and the image acquisition and processing was controlled by MetaMorph (Molecular Device) software.
The guided subnuclear irregularities were characterized by measurement of their anisotropicity. […] After thresholding the cropped images of lamin A channel using the masks, the coherency, an indicator for anisotropy property, of the nanopillar-guided nuclear features was measured using orientationJ (a plugin function in ImageJ).

SK-N-SH cells [2] = assay: Lamin A level by immunostaining after anti-cancer drug treatment; conditions: SK-N-SH cells remaining attached after 24 h; DOX 1 μM, Etop 10 μM; vs DMSO; FIG. 19a-b
Description: as §1, with “After 24-hour incubation, the treated cells and untreated cells were fixed with 4% Paraformaldehyde (PFA) Solution in PBS (Boster biological technology AR1068) for 15 minutes for subsequent immunostaining.” left out
as §2

MDA-MB-231 cells [3] = assay: Nanopillar-guided subnuclear deformation anisotropy (coherency) after drug treatment
MCF-7 cells [4] = assay: as above; conditions: MCF-7 on nanopillar arrays, treated vs DMSO; FIG. 9c-d
Description: Prior to cell culture, the nanostructured chips were cleaned by air plasma for 10 min and exposed to UV for 15 min Subsequently, the nanostructured substrates were coated with fibronectin (2 ug/ml, Sigma-Aldrich) for 30 minutes at 37° C. After coating, cell culture was performed on the substrates. All the cell lines used in this work were maintained in the Dulbecco's Modified Eagle Medium (DMEM) (Gibco) supplemented with 10% fetal bovine serum (FBS) (Life Technologies) and 1% Penicillin-Streptomycin (Life Technologies) in a standard incubator at 37° C. with 5% CO2. […]
Imaging of the fluorescently labeled cells on nanopillar arrays was performed using laser scanning confocal microscopy (Zeiss LSM 800 with Airyscan). […] Live cell imaging and the subsequent fluorescence imaging was performed using a spinning disc confocal microscope (SDC) that is built around a Nikon Tit inverted microscope equipped with a Yokogawa CSU-W1 confocal spinning head, a Plan-Apo objective (100×1.45-NA), a back-illuminated sCMOS camera (Orca-Fusion; Hamamatsu). […]
Anisotropicity of nanopillar-guided subnuclear shape irregularities was measured on nanopillar arrays. […] Then, the anisotropicity of the subnuclear shape irregularities was measured as coherency, an indicator for anisotropy property, using orientationJ (a plugin function in ImageJ).

MCF-7 cells [5] = assay: Wound healing assay (migration rate); conditions: MCF-7, treatment for 24 h vs DMSO, p value=0.7440; FIG. 9e-f
Description: (§3) Cells were maintained in 35 mm dishes for each cell line until approximately 90% confluent. Scratch was made in the confluent monolayer of cells with a sterile […] pipette tip, and fresh culture medium was replaced. Brightfield microscopic pictures were taken of the same field at 24 hours. Migration rate was measured by quantifying the closure area within the same time frame using ImageJ.

MDA-MB-231 cells [6] = assay: Wound healing assay (migration rate); conditions: MDA-MB-231, treatment for 24 h vs DMSO, p value=0.0363; FIG. 9e-f
Description: as §3

SMILES	fraction of cells with dominant isotropic ring features and low deformation coherency (SK-N-SH cells [1])	pillar coherency (SK-N-SH cells [1])	lamin A level (in words) (SK-N-SH cells [2])	lowest concentration at which pillar coherency value and fraction of line-deformation cells responded (MDA-MB-231 cells [3]; MDA-MB-231, DMSO, 1 μM and 10 μM tested, FIG. 14) [µM]	pillar coherency value (MDA-MB-231 cells [3]; MDA-MB-231 on nanopillar arrays (500 nm diameter, 3 μm pitch), 24-hour treatment, DMSO control 0.4218±0.1305, FIG. 9c)	fraction of line-deformation cells (MDA-MB-231 cells [3]; MDA-MB-231 on nanopillar arrays, 24-hour treatment, line = cell coherency >0.3, DMSO control 0.9333±0.1155, FIG. 9d)	change in nuclear deformation coherency / line deformation (in words) (MDA-MB-231 cells [3]; MDA-MB-231 on nanopillar arrays, treated vs DMSO)	change in anisotropy (coherency) of induced nuclear deformation (in words) (MCF-7 cells [4])	migration speed change (in words) (MCF-7 cells [5])	migration rate change (in words) (MDA-MB-231 cells [6])
COc1cccc2c1C(=O)c1c(O)c3c(c(O)c1C2=O)C[C@@](O)(C(=O)CO)C[C@@H]3O[C@H]1C[C@H](N)[C@H](O)[C@H](C)O1 [DOX, doxorubicin]	0.607±0.152	0.3057±0.1862	significantly high lamin A level	–	–	–	–	–	–	–
COc1cc([C@@H]2c3cc4c(cc3[C@@H](O[C@@H]3O[C@@H]5CO[C@@H](C)O[C@H]5[C@H](O)[C@H]3O)[C@H]3COC(=O)[C@H]23)OCO4)cc(OC)c1O [Etop, etoposide]	0.772±0.079	0.2606±0.1564	significantly high lamin A level	–	–	–	–	–	–	–
COc1cc(/C=C/C(=O)CC(=O)/C=C/c2ccc(O)c(OC)c2)ccc1O [curcumin]	–	–	–	1	0.2426±0.1570	0.2646±0.2695	significant decreases in nuclear deformation coherency; also recorded: significantly less line deformation	no significant coherency changes; also recorded: No significant change	do not show significant changes in migration speed	lower migration rate
